Laboratory results taken from ChEMBL document CHEMBL1159386, “New bioactive coumarins from Kielmeyera albopunctata” (2003).
Converted amounts (≈) assume the structure as drawn.

Columns and labels:
Type in all cases: functional
Lu1 = experiment: Cytotoxicity against human Lu1 cells; settings: read-out: ED50 (the source's name)
Col2 = experiment: Cytotoxicity against human Col2 cells; settings: read-out: ED50 (the source's name)
KB = experiment: Cytotoxicity against human KB cells; settings: read-out: ED50 (the source's name)
LNCaP = experiment: Cytotoxicity against human LNCAP cells; settings: read-out: ED50 (the source's name)
Trypanosoma cruzi [1] = experiment: Antitrypanosomal activity against Trypanosoma cruzi trypomastigotes assessed as parasite lysis 500 ug/mL after 24 hrs
Trypanosoma cruzi [2] = experiment: Antitrypanosomal activity against Trypanosoma cruzi trypomastigotes assessed as parasite lysis 125 ug/mL after 24 hrs
Trypanosoma cruzi [3] = experiment: Antitrypanosomal activity against Trypanosoma cruzi trypomastigotes assessed as parasite lysis 7.5 ug/mL after 24 hrs

CC(C)=CCc1c(O)c(C(=O)CC(C)CO)c2oc(=O)cc(-c3ccccc3)c2c1O (stereo not given)
EC50 (Lu1): 19.8 mg/L (≈ 46.9 µM) | EC50 (Col2): 17.4 mg/L (≈ 41.2 µM) | EC50 (KB): 17.7 mg/L (≈ 41.9 µM) | EC50 (LNCaP): 15.9 mg/L (≈ 37.6 µM) | Activity (Trypanosoma cruzi [1]): 98%

CCC(C)c1cc(=O)oc2c(C(=O)CC(C)CO)c(O)c(CC=C(C)C)c(O)c12 (stereo not given)
EC50 (Lu1): 19.4 mg/L (≈ 48.2 µM) | EC50 (Col2): 13.1 mg/L (≈ 32.5 µM) | EC50 (KB): 15.8 mg/L (≈ 39.3 µM) | EC50 (LNCaP): 14 mg/L (≈ 34.8 µM) | Activity (Trypanosoma cruzi [1]): 100% | Activity (Trypanosoma cruzi [2]): 80%

CCC(C)c1cc(=O)oc2c(C(=O)CC(C)CO)c(O)c3c(c12)OC(C(C)(C)O)C3 (stereo not given)
EC50 (Lu1): > 20 mg/L | EC50 (Col2): > 20 mg/L | EC50 (KB): > 20 mg/L | EC50 (LNCaP): > 20 mg/L

Cc1c2ccncc2c(C)c2c1[nH]c1ccccc12 [ELLIPTECINE]
EC50 (Lu1): 0.02 mg/L (≈ 0.0812 µM) | EC50 (Col2): 0.3 mg/L (≈ 1.22 µM) | EC50 (KB): 0.04 mg/L (≈ 0.162 µM) | EC50 (LNCaP): 0.8 mg/L (≈ 3.25 µM)

CN(C)c1ccc(C(=C2C=CC(=[N+](C)C)C=C2)c2ccc(N(C)C)cc2)cc1.[Cl-] [GENTIAN VIOLET]
Activity (Trypanosoma cruzi [3]): 50%
